Test results published in the supplement of paper PMC10307832.

Columns and labels:
Assay in all cases: relative viability (nuclei count vs DMSO), 5 days (fraction); higher = more cells survive
Vismodegib + Vorinostat = compound: CS(=O)(=O)c1ccc(C(=O)Nc2ccc(Cl)c(-c3ccccn3)c2)c(Cl)c1 [Vismodegib] + O=C(CCCCCCC(=O)Nc1ccccc1)NO [Vorinostat] (partner 1 µM)
Procedure, shortened: (§1)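 Nuclei were stained with Hoechst during a one-step fixation (final 0.05% Triton X-100, 1% formaldehyde, 1 ug/ml Hoechst) carried out 5 days after dosing, then counted on 4× images. The cells, lung cancer lines in 1536-well plates, had been dosed by pin tool the day after seeding with one drug alone or a fixed anchor-drug dose plus five library-drug doses (not always all listed) in √10 steps. Relative viability is the nuclei count in treated wells divided by that in vehicle wells, and each value is the median of duplicate plates.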

VE-821 + Navitoclax = compound: CS(=O)(=O)c1ccc(-c2cnc(N)c(C(=O)Nc3ccccc3)n2)cc1 [VE-821] + CC1(C)CCC(c2ccc(Cl)cc2)=C(CN2CCN(c3ccc(C(=O)NS(=O)(=O)c4ccc(N[C@H](CCN5CCOCC5)CSc5ccccc5)c(S(=O)(=O)C(F)(F)F)c4)cc3)CC2)C1 [Navitoclax] (partner 0.5 µM)
Procedure, shortened: as §1

VE-821 + Vorinostat = compound: CS(=O)(=O)c1ccc(-c2cnc(N)c(C(=O)Nc3ccccc3)n2)cc1 [VE-821] + O=C(CCCCCCC(=O)Nc1ccccc1)NO [Vorinostat] (partner 1 µM)
Procedure, shortened: as §1

Cell Line | relative viability (Vismodegib + Vorinostat; first compound 0.08 µM) | relative viability (Vismodegib + Vorinostat; first compound 0.253 µM) | relative viability (Vismodegib + Vorinostat; first compound 0.8 µM) | relative viability (Vismodegib + Vorinostat; first compound 2.53 µM) | relative viability (Vismodegib + Vorinostat; first compound 8 µM) | relative viability (VE-821 + Navitoclax; first compound 0.08 µM) | relative viability (VE-821 + Navitoclax; first compound 0.253 µM) | relative viability (VE-821 + Navitoclax; first compound 0.8 µM) | relative viability (VE-821 + Navitoclax; first compound 2.53 µM) | relative viability (VE-821 + Navitoclax; first compound 8 µM) | relative viability (VE-821 + Vorinostat; first compound 0.08 µM) | relative viability (VE-821 + Vorinostat; first compound 0.253 µM) | relative viability (VE-821 + Vorinostat; first compound 0.8 µM) | relative viability (VE-821 + Vorinostat; first compound 2.53 µM) | relative viability (VE-821 + Vorinostat; first compound 8 µM)
NCI-H2405 | 0.958 | 0.85 | 1 | 1.02 | 1.06 | 0.873 | 0.888 | 0.762 | 0.942 | 0.751 | 1.09 | 0.977 | 0.992 | 0.984 | 0.859
NCI-H3122 | 0.986 | 0.994 | 0.994 | 1.09 | 0.992 | 1.07 | 1.02 | 1.01 | 1.02 | 0.922 | 1.11 | 1.01 | 0.978 | 1.13 | 0.908
PC-3 [JPC-3] | 0.858 | 0.548 | 0.802 | 0.924 | 0.896 | 0.837 | 0.801 | 0.859 | 0.789 | 0.744 | 0.815 | 0.734 | 0.858 | 0.883 | 0.664
PC-14 | 0.682 | 0.773 | 0.764 | 0.838 | 0.749 | 1.09 | 0.955 | 1.06 | 0.962 | 0.923 | 0.95 | 0.68 | 0.613 | 0.639 | 0.255
RERF-LC-KJ | 0.669 | 0.603 | 0.78 | 0.772 | 0.659 | 0.94 | 0.824 | 0.881 | 0.671 | 0.651 | 0.765 | 0.731 | 0.609 | 0.761 | 0.623
SK-LU-1 | 0.718 | 0.827 | 0.784 | 0.718 | 0.842 | 0.781 | 0.871 | 0.744 | 0.366 | 0.247 | 0.918 | 0.687 | 0.783 | 0.496 | 0.305
SK-MES-1 | 1.11 | 0.981 | 1.07 | 0.973 | 1.06 | 1.3 | 1.23 | 1.24 | 1.21 | 1.26 | 1.18 | 1.02 | 0.857 | 1.08 | 0.358
SW 1573 | 0.77 | 0.564 | 0.895 | 0.636 | 0.679 | 1.12 | 0.992 | 1.03 | 0.796 | 1.1 | 0.745 | 0.708 | 0.83 | 0.954 | 0.532
